The experiment relates to basilar arteries of pigs. In words: Constriction of isolated basilar artery segments of pigs in organ baths (serotonin-like response). The note with it: Sus scrofa; pig basilar artery segments, 37° C., Krebs-Henseleit; relative to serotonin 3×10^-7 M; estimated from three different preparations; read-out: ED50 (molar concentration at which a test compound causes 50% of the constrictive response obtained with serotonin). The protocol:
Segments of basilar aeries taken from pigs (anaesthetised with sodium pentobarbital) were mounted for recording of isometric tension in organ baths. The preparations were bathed in Krebs--Henseleit solution. The solution was kept at 37° C. and gassed with a mixture of 95% O2 -5% CO2. The Preparations were stretched until a stable basal tension of 2 grams was obtained.
The preparations were made to constrict with serotonin (3×10^-7 M). The response to the addition of serotonin was measured and subsequently the serotonin was washed away.
This Procedure was repeated until stable responses were obtained.
Subsequently the test compound was administered to the organ bath and the constriction of the Preparation was measured. This constrictive response is expressed as a Percentage of the response to serotonin as measured Previously.
The ED50 -value (molar concentration) is defined as the concentration at which a test compound causes 50% of the constrictive response obtained with serotonin. Said
ED50 -values are estimated from experiments on three different preparations.

Molecules are shown by their SMILES. Counter-ions that a name gives are not always drawn.

In the case of `Brc1ccc2c(c1)CCC(CNCCCNC1=NCCCN1)O2` (racemic) [Compound 56, (±)-N-[(6-bromo-3,4-dihydro-2H-1-benzopyran-2-yl)methyl]-N'-(1,4,5,6-tetrahydro-2-pyrimidinyl)-1,3-propanediamine ethanedioate(1:2)], the EC50 was 187 nM.
For the compound `c1ccc2c(c1)CCC(CNCCCNC1=NCCCN1)O2` (racemic) [Compound 95, (±)-N-[(3,4-dihydro-2H-1-benzopyran-2-yl)methyl]-N'-(1,4,5,6-tetrahydro-2-pyrimidinyl)-1,3-propanediamine dihydrochloride], the EC50 is 81.7 nM.
The result for `CC(C)NC(=N)NCCCNCC1CCc2ccccc2O1` (racemic) [Compound 150, (±)-N-[3-[[(3,4-dihydro-2H-1-benzopyran-2-yl)methyl]amino]propyl]-N'-(1-methylethyl)-guanidine dihydrochloride] reads 46.9 nM; that for `Fc1ccc2c(c1)CCC(CNCCCNc1ncccn1)O2` (centres unmarked) [Compound 3], 146 nM.
To `c1cnc(NCCCNC[C@@H]2CCc3ccccc3O2)nc1` [Compound 5] belongs 515 nM; to `Fc1ccc2c(c1)CC[C@H](CNCCCNc1ncccn1)O2` [Compound 13], 42.2 nM; to `CCc1ccc2c(c1)OC(CNCCCCNc1ncccn1)CC2` (centres unmarked) [Compound 18], 49 nM.
Regarding `Fc1ccc2c(c1)CC[C@H](CNCCNc1ncccn1)O2` [Compound 46, (-)-(R)-N-[(6-fluoro-3,4-dihydro-2H-1-benzopyran-2yl)methyl]-N'-(2-pyrimidinyl)-1,2-ethanediamine], the EC50 is 1000 nM.
The result for `c1cnc(NCCCCNCC2CCc3ccccc3O2)nc1` (centres unmarked) [Compound 48] reads 306 nM; that for `c1ccc2c(c1)CCC(CNCCNC1=NCCCN1)O2` (centres unmarked) [Compound 57], 542 nM.
`c1ccc2c(c1)CC[C@H](CNCCCNC1=NCCCN1)O2` [Compound 62, (-)-(R)-N-[(3,4-dihydro-2H-1-benzopyran-2-yl)methyl]-N'-(1,4,5,6-tetrahydro-2-pyrimidinyl)-1,3-propanediamine dihydrochloride hemihydrate]: the EC50 is 31.7 nM.
Regarding `Fc1ccc2c(c1)CCC(CNCCCNC1=NCCCN1)O2` (centres unmarked) [Compound 63], the EC50 is 121 nM.
Consider `c1ccc2c(c1)OCC(CNCCCNC1=NCCCN1)O2` (centres unmarked) [Compound 64], for which the EC50 was 89.7 nM.
Take `c1ccc2c(c1)CC[C@@H](CNCCCNC1=NCCCN1)O2` [Compound 65]: the EC50 is 221 nM.
Take `c1ccc2c(c1)CC(CNCCCNC1=NCCCN1)O2` (centres unmarked) [Compound 66]: the EC50 is 656 nM.
Turning to `Cc1ccc2c(c1)OC(CNCCCNC1=NCCCN1)CC2` (centres unmarked) [Compound 67], the EC50 is 17.7 nM.
Take `Fc1ccc2c(c1)CCC(CNCCCCCCNC1=NCCCN1)O2` (centres unmarked) [Compound 68]: the EC50 was 33.3 nM.
For `Fc1ccc2c(c1)CC[C@H](CNCCCNC1=NCCCN1)O2` [Compound 70], the EC50 was 6.37 nM.
For `Fc1ccc2c(c1)OC(CNCCCNC1=NCCCN1)CC2` (centres unmarked) [Compound 72], the EC50 was 23.4 nM.
`CCc1ccc2c(c1)OC(CNCCCNC1=NCCCN1)CC2` (centres unmarked) [Compound 73]: the EC50 is 3.46 nM.
As to `COc1cccc2c1OC(CNCCCNC1=NCCCN1)CC2` (centres unmarked) [Compound 76], the EC50 is 9.19 nM.
To `COc1ccc2c(c1)OC(CNCCCNC1=NCCCN1)CC2` (centres unmarked) [Compound 78] belongs 35.4 nM.
Take `CCc1ccc2c(c1)OC(CNCCCCCNC1=NCCCN1)CC2` (centres unmarked) [Compound 82]: the EC50 was 17.6 nM.
With `Cc1cccc2c1OC(CNCCCNC1=NCCCN1)CC2` (centres unmarked) [Compound 84], the EC50 was 13.3 nM.
Take `CC(C)c1ccc2c(c1)OC(CNCCCNC1=NCCCN1)CC2` (centres unmarked) [Compound 86]: the EC50 was 41.6 nM.
For `CCCCc1ccc2c(c1)OC(CNCCCNC1=NCCCN1)CC2` (centres unmarked) [Compound 87], the EC50 was 88.7 nM.
As to `CCCc1ccc2c(c1)OC(CNCCCNC1=NCCCN1)CC2` (centres unmarked) [Compound 88], the EC50 is 7.02 nM.
To `CC(C)(C)c1ccc2c(c1)OC(CNCCCNC1=NCCCN1)CC2` (centres unmarked) [Compound 89] belongs 79.4 nM; to `c1ccc2c(c1)CCC(CNCCCCNC1=NCCCN1)O2` (centres unmarked) [Compound 97], 97.6 nM; to `c1ccc2c(c1)CCC(CNCCCCCNC1=NCCCN1)O2` (centres unmarked) [Compound 98], 34.2 nM.
As to `c1ccc2c(c1)CC[C@H](CNCCCCNC1=NCCCN1)O2` [Compound 99], the EC50 is 42.2 nM.
Turning to `Fc1ccc2c(c1)CCC(CNCCCNC1=NCCN1)O2` (centres unmarked) [Compound 106], the EC50 was 39 nM.
For the compound `c1ccc2c(c1)CCC(CNCCCNC1=NCCCCN1)O2` (centres unmarked) [Compound 111], the EC50 is 16.7 nM.
The result for `N#Cc1ccnc(NCCCNCC2CCc3ccccc3O2)n1` (centres unmarked) [Compound 113] reads 16.3 nM; that for `NC(=O)c1ccnc(NCCCNCC2CCc3ccccc3O2)n1` (centres unmarked) [Compound 114], 95.6 nM.
Consider `c1ccc2c(c1)CCC(CNCCCNc1nccnn1)O2` (centres unmarked) [Compound 115], for which the EC50 was 45.1 nM.
With `CCc1ccc2c(c1)OC(CNCCCNC1=NCCCCN1)CC2` (centres unmarked) [Compound 116], the EC50 is 68.2 nM.
Turning to `c1ccc2c(c1)CCC(CNCCNC1=NCCN1)O2` (centres unmarked) [Compound 129], the EC50 is 444 nM.
The result for `c1ccc2c(c1)CCC(CNCCCNC1=NCCN1)O2` (centres unmarked) [Compound 130] reads 33.6 nM; that for `CCc1ccc2c(c1)OC(CNCCCNC1=NCCN1)CC2` (centres unmarked) [Compound 133], 52.7 nM.
As for `c1ccc2c(c1)CCC(CN1CCC(NC3=NCCCN3)CC1)O2` (centres unmarked) [Compound 136], the EC50 was 810 nM.
To `c1ccc2c(c1)CC[C@H](CN1CCC(NC3=NCCCN3)CC1)O2` [Compound 139] belongs 150 nM; to `CCNC(=N)NCCNCC1CCc2ccccc2O1` (centres unmarked) [Compound 148], 495 nM.
`CCCNC(=N)NCCCNCC1CCc2ccccc2O1` (centres unmarked) [Compound 149]: the EC50 is 99.2 nM.
Take `CN(C)C(=N)NCCCNCC1CCc2ccccc2O1` (centres unmarked) [Compound 151]: the EC50 was 27.1 nM.
The result for `Cc1ccc2c(c1)OC(CNCCCNC(=N)N(C)C)CC2` (centres unmarked) [Compound 152] reads 56 nM; that for `CCc1ccc2c(c1)OC(CNCCCNC(=N)N(C)C)CC2` (centres unmarked) [Compound 153], 21.8 nM.

The values above are taken from patent publication US5624952A, “[(Benzodioxan, benzofuran or benzopyran) alkylamino] alkyl substituted guanidines” (Janssen Pharmaceutica N.V., priority 1993, dated 1997).
